From patent US11155844B2, “Process for the production of ortho-aminobenzoic acid and/or aniline from fermentable substrate using recombinant yeast” (Covestro Deutschland AG, priority 2015, dated 2021) come the findings set out here.

Structures are written as SMILES. ≈ marks a conversion by molar mass, not a printed value.

The nature of the data set: solubility of oAB in water depending on the pH. It is filed as physicochemical. Conditions: plasma or biological fluid; pH between 3.0 and 4.0; fermentation broth; read-out: oAB remaining dissolved at the solubility minimum.

As for `Nc1ccccc1C(=O)O` [oAB, 2-aminobenzoic acid], the solubility (usually the dissolved amount per volume that the medium holds) was around 5000 µg/mL (≈ 36.5 mM).
